Columns and labels:
Format in all cases: cell-based
MKN45 = assay: Growth inhibition of gastric cancer cells MKN45 (CCK-8); conditions: Homo sapiens, MKN-45, half inhibitory concentration, 72 hours
In short: (§1)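 MKN45 or SNU5 cells in 96-well plates were treated with compound dilution series in triplicate for 72 h. Viability was read by CCK-8 (1 h, absorbance 450 nm), and inhibition was calculated against blank and medium-only controls. IC50 came from concentration-response curves.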

SNU5 = assay: Growth inhibition of gastric cancer cells SNU5 (CCK-8); conditions: Homo sapiens, SNU-5, half inhibitory concentration, 72 hours
In short: as §1

DDR1 = DDR1 (Homo sapiens, UniProt Q08345); assay: Degradation of DDR1 in tumor cell MKN45 (Western blot); parameters: The degradation activity of the compounds against DDR1 in the MKN45 cell line; endogenous in cells; host or cells: MKN45; conditions: MKN-45, maximum degradation percentage, MKN45 cells, 24 hours
In short: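 MKN45 gastric cancer cells were treated with compound dilutions for 24 h at a final DMSO of 0.5%; the 2 mM–200 nM series is the added solution, not the final concentration. DDR1 in lysates was quantified by Western blot, normalized to GAPDH and expressed relative to blank control, giving DC50 and Dmax.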

Sequence of DDR1 (Q08345 19-913): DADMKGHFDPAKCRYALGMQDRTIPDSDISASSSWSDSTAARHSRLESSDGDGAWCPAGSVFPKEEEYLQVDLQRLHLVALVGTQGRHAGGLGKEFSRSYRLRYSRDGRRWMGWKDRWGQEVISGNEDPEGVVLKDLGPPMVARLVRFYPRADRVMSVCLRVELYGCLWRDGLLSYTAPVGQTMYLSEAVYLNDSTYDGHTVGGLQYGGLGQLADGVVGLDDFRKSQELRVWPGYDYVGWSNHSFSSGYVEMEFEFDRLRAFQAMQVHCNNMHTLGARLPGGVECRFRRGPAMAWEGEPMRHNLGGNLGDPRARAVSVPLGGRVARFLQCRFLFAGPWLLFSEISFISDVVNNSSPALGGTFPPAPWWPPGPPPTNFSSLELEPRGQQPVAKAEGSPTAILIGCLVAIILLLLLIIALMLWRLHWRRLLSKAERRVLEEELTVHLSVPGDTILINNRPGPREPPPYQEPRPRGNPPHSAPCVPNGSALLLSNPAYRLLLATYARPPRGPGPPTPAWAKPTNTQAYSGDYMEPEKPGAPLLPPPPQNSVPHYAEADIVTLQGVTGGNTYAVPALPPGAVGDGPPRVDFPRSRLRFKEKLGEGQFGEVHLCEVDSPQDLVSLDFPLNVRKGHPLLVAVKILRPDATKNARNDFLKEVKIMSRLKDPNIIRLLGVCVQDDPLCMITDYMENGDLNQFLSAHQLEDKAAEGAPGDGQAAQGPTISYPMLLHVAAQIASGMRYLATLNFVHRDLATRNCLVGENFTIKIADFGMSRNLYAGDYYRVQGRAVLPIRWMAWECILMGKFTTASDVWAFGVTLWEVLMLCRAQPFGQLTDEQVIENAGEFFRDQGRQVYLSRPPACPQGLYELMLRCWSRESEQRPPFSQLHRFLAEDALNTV

SMILES	IC50 (MKN45) [nM]	IC50 (SNU5) [nM]	Dmax (DDR1) [%]
Cc1nc(CCOC2CCN(CCC(=O)Nc3cccc4c3CN(C3CCC(=O)NC3=O)C4=O)CC2)cc(Nc2ncc(C(=O)Nc3c(C)cccc3Cl)s2)n1 (stereo not drawn) [TPD10050]	500 to 1000	100 to 500	75 to 85
COc1cc2c(Oc3ccc(NC(=O)C4(C(=O)Nc5ccc(F)cc5)CC4)cc3)ccnc2cc1NCC(=O)N[C@H](C(=O)N1C[C@H](O)C[C@H]1C(=O)NCc1ccc(-c2scnc2C)cc1)C(C)(C)C [TPD5417]	500 to 1000	1000 to 3000	65 to 75
COc1cc2c(Oc3ccc(NC(=O)C4(C(=O)Nc5ccc(F)cc5)CC4)cc3)ccnc2cc1N1CCC(CN2CCC(C(=O)N3C[C@H](O)C[C@H]3C(=O)NCc3ccc(-c4scnc4C)cc3)CC2)CC1 [TPD5421]	100 to 500	100 to 500	75 to 85
C[C@@H](Oc1cc(-c2cnn(C3CCN(CCC(=O)Nc4cccc5c4CN(C4CCC(=O)NC4=O)C5=O)CC3)c2)cnc1N)c1c(Cl)ccc(F)c1Cl (stereo partly drawn) [TPD10040]	≤ 100	≤ 100	75 to 85
COc1cc2c(Oc3ccc(NC(=O)C4(C(=O)Nc5ccc(F)cc5)CC4)cc3)ccnc2cc1-c1cnn(C2CCN(C(=O)CCCCC(=O)N[C@H](C(=O)N3C[C@H](O)C[C@H]3C(=O)NCc3ccc(-c4scnc4C)cc3)C(C)(C)C)CC2)c1 [TPD5505]	1000 to 3000	500 to 1000	75 to 85
Cc1ncsc1-c1ccc(CNC(=O)[C@@H]2C[C@@H](O)CN2C(=O)[C@@H](NC(=O)CN2CCN(CC3CCN(C(=O)c4ccc(-c5cnc6ncc(Cc7ccc8ncccc8c7)n6n5)cc4F)CC3)CC2)C(C)(C)C)cc1 [TPD9004]	100 to 500	≤ 100	75 to 85
O=C1CCC(N2C(=O)c3ccc(N4CCN(CCC5CCN(CCNC(=O)c6ccc(-c7cnc8ncc(Cc9ccc%10ncccc%10c9)n8n7)cc6F)CC5)CC4)cc3C2=O)C(=O)N1 (stereo not drawn) [TPD7022]	100 to 500	100 to 500	65 to 75
COc1cc2c(Oc3ccc(NC(=O)C4(C(=O)Nc5ccc(F)cc5)CC4)cc3)ccnc2cc1N1CCC(CN2C[C@@H]3C[C@H]2CN3CC(=O)Nc2ccc3c(c2)CN(C2CCC(=O)NC2=O)C3=O)CC1 (stereo partly drawn) [TPD12216]	500 to 1000	≤ 100	> 85
N#Cc1cccc(-c2ccc(=O)n(Cc3cccc(-c4ncc(OCC5CCN(CCC(=O)Nc6cccc7c6CN(C6CCC(=O)NC6=O)C7=O)CC5)cn4)c3)n2)c1 (stereo not drawn) [TPD10013]	1000 to 3000	500 to 1000	65 to 75
COc1cc2c(Oc3ccc(NC(=O)C4(C(=O)Nc5ccc(F)cc5)CC4)cc3)ccnc2cc1N1CCC(CN2C3CC2CN(CCC=Cc2cc4c(cn2)C(=O)N(C2CCC(=O)NC2=O)C4)C3)CC1 (stereo not drawn) [TPD12238]	≤ 100	≤ 100	65 to 75
O=C1CCC(N2Cc3cc(NC(=O)CN4C5CC4CN(CC4CCN(c6cc7nccc(Oc8ccc(NC(=O)C9(C(=O)Nc%10ccc(F)cc%10)CC9)cc8)c7cc6F)CC4)C5)ncc3C2=O)C(=O)N1 (stereo not drawn) [TPD12088]	100 to 500	≤ 100	65 to 75
COc1cc2c(Oc3ccc(NC(=O)C4(C(=O)Nc5ccc(F)cc5)CC4)cc3)ccnc2cc1N1CCC(N2CC(C(=O)N[C@H](C(=O)N3C[C@H](O)C[C@H]3C(=O)NCc3ccc(-c4scnc4C)cc3)C(C)(C)C)C2)CC1 [TPD5432]	100 to 500	≤ 100	75 to 85
COc1cc2c(Oc3ccc(NC(=O)C4(C(=O)Nc5ccc(F)cc5)CC4)cc3)ccnc2cc1NCC(=O)N1CCC(CN2CCN(c3ccc(NC4CCC(=O)NC4=O)nc3F)CC2)CC1 (stereo not drawn) [TPD5774]	100 to 500	500 to 1000	> 85
COc1cc2c(Oc3ccc(NC(=O)C4(C(=O)Nc5ccc(F)cc5)CC4)cc3)ccnc2cc1N1CCC(OCCC(=O)Nc2ccc3c(c2)C(=O)N(C2CCC(=O)NC2=O)C3=O)CC1 (stereo not drawn) [TPD5706]	100 to 500	100 to 500	75 to 85
COc1cc2c(Oc3ccc(NC(=O)C4(C(=O)Nc5ccc(F)cc5)CC4)cc3)ccnc2cc1N1CCC(CN2CCC(C(=O)N[C@H](C(=O)N3C[C@H](O)C[C@H]3C(=O)NCc3ccc(-c4scnc4C)cc3)C(C)(C)C)CC2)CC1 [TPD5402b]	≤ 100	≤ 100	65 to 75
C[C@@H](Oc1cc(-c2cnn(C3CCN(CCN4CCN(c5ccc6c(c5)C(=O)N(C5CCC(=O)NC5=O)C6=O)CC4)CC3)c2)cnc1N)c1c(Cl)ccc(F)c1Cl (stereo partly drawn) [TPD10041]	500 to 1000	≤ 100	> 85
COc1cc2c(Oc3ccc(NC(=O)C4(C(=O)Nc5ccc(F)cc5)CC4)cc3)ccnc2cc1N1CCC(CN2CCN(CCCc3cccc4c3CN(C3CCC(=O)NC3=O)C4=O)CC2)CC1 (stereo not drawn) [TPD5937]	≤ 100	≤ 100	65 to 75
O=C1CCC(N2Cc3cc(NCCN4C5CC4CN(CC4CCN(c6cc7nccc(Oc8ccc(NC(=O)C9(C(=O)Nc%10ccc(F)cc%10)CC9)cc8)c7cc6F)CC4)C5)ncc3C2=O)C(=O)N1 (stereo not drawn) [TPD12086]	100 to 500	≤ 100	75 to 85
O=C1CCC(N2Cc3cc(NC(=O)CCN4CC5CC(C4)N5CC4CCN(c5cc6nccc(Oc7ccc(NC(=O)C8(C(=O)Nc9ccc(F)cc9)CC8)cc7)c6cc5F)CC4)ccc3C2=O)C(=O)N1 (stereo not drawn) [TPD12215]	≤ 100	≤ 100	75 to 85
COc1cc2c(Oc3ccc(NC(=O)C4(C(=O)Nc5ccc(F)cc5)CC4)cc3)ccnc2cc1N1CCC(N2CCN(C(=O)CCCCC(=O)N[C@H](C(=O)N3C[C@H](O)C[C@H]3C(=O)NCc3ccc(-c4scnc4C)cc3)C(C)(C)C)CC2)CC1 [TPD5494]	1000 to 3000	100 to 500	> 85
O=C1CCC(N2Cc3c(C#CCCN4CC5CC(C4)N5CC4CCN(c5cc6nccc(Oc7ccc(NC(=O)C8(C(=O)Nc9ccc(F)cc9)CC8)cc7)c6cc5OC(F)(F)F)CC4)cccc3C2=O)C(=O)N1 (stereo not drawn) [TPD12150]	≤ 100	100 to 500	65 to 75
COc1cc2c(Oc3ccc(NC(=O)C4(C(=O)Nc5ccc(F)cc5)CC4)cc3)ccnc2cc1NC(=O)CN1CCN(CC2CCN(c3ccc4c(c3)C(=O)N(C3CCC(=O)NC3=O)C4=O)CC2)CC1 (stereo not drawn) [TPD5746]	100 to 500	500 to 1000	75 to 85
COc1cc2nccc(Oc3ccc(NC(=O)C4(C(=O)Nc5ccc(F)cc5)CC4)cc3)c2cc1OC [cabozantinib, reference compound]	≤ 100	≤ 100	< 50
COc1cc2c(Oc3ccc(NC(=O)C4(C(=O)Nc5ccc(F)cc5)CC4)cc3)ccnc2cc1NC(=O)CC1CCN(C(=O)CN2CCN(c3ccc4c(c3)C(=O)N(C3CCC(=O)NC3=O)C4=O)CC2)CC1 (stereo not drawn) [TPD5745]	500 to 1000	500 to 1000	65 to 75
COc1cc2c(Oc3ccc(NC(=O)C4(C(=O)Nc5ccc(F)cc5)CC4)cc3)ccnc2cc1N1CCC(C(=O)N[C@H](C(=O)N2C[C@H](O)C[C@H]2C(=O)NCc2ccc(-c3scnc3C)cc2)C(C)(C)C)CC1 [TPD5409]	100 to 500	100 to 500	65 to 75
COc1cc2c(Oc3ccc(NC(=O)C4(C(=O)Nc5ccc(F)cc5)CC4)cc3)ccnc2cc1NC(=O)CN1CCC(CN2CCN(c3ccc(N(C)C4CCC(=O)NC4=O)nc3F)CC2)CC1 (stereo not drawn) [TPD5760]	100 to 500	100 to 500	65 to 75
COc1cc2c(Oc3ccc(NC(=O)C4(C(=O)Nc5ccc(F)cc5)CC4)cc3)ccnc2cc1N1CCC(C(=O)NCC(=O)N[C@H](C(=O)N2C[C@H](O)C[C@H]2C(=O)NCc2ccc(-c3scnc3C)cc2)C(C)(C)C)CC1 [TPD5452]	1000 to 3000	1000 to 3000	65 to 75
COc1cc2c(Oc3ccc(NC(=O)C4(C(=O)Nc5ccc(F)cc5)CC4)cc3)ccnc2cc1N1CCC(CN2CCN(CCNc3nccc4c3CN(C3CCC(=O)NC3=O)C4=O)C(=O)C2)CC1 (stereo not drawn) [TPD12068]	≤ 100	≤ 100	65 to 75
COc1cc2c(Oc3ccc(NC(=O)C4(C(=O)Nc5ccc(F)cc5)CC4)cc3)ccnc2cc1NC(=O)CCCN1CCC(CN2CCN(c3ccc(NC4CCC(=O)NC4=O)cc3)CC2)CC1 (stereo not drawn) [TPD5752m]	100 to 500	100 to 500	> 85
O=C1CCC(N2Cc3cc(C#CCCN4CC5CC(C4)N5CC4CCN(c5cc6nccc(Oc7ccc(NC(=O)C8(C(=O)Nc9ccc(F)cc9)CC8)cc7)c6cc5F)CC4)ccc3C2=O)C(=O)N1 (stereo not drawn) [TPD12237]	≤ 100	≤ 100	65 to 75

Source: patent publication US20240374738A1, “BIFUNCTIONAL COMPOUND CAPABLE OF DEGRADING RECEPTOR TYROSINE KINASE AND APPLICATION THEREOF” (TAIBIDI PHARMACEUTICAL TECHNOLOGY (SHIJIAZHUANG) CO., LTD., priority 2023, published 2024)
